Measured values from PMC8043206 (ACS Pharmacology & Translational Science, 2021).

System: SARS-CoV-2-S pseudotyped particles
Type: cell-based
Settings: Calu-3 cells

Structure (SMILES)	Activity on viral entry in PP entry assay (in words)
CCOC(=O)c1ccc(OC(=O)CCCCCNC(=N)N)cc1 [NCGC00025297, Gabexate]	did not exhibit an activity
COC(=O)[C@H](Cc1cccc(C(=N)N)c1)[C@@H](C)NC(=O)c1ccc(-c2cc[n+]([O-])cc2)cc1 [NCGC00378763, Otamixaban]	efficient activity
N=C(N)c1ccc2cc(OC(=O)c3ccc(N=C(N)N)cc3)ccc2c1 [NCGC00160398, Nafamostat]	high potency and efficacy
C=Cc1cc(C(=O)Nc2ccc(C(=N)N)cc2)c(-c2ccc(C(=O)NCC3CC3)nc2C(=O)O)cc1OC [NCGC00522636, Avoralstat]	comparable inhibition activity to camostat
CN(C)C(=O)COC(=O)Cc1ccc(OC(=O)c2ccc(NC(=N)N)cc2)cc1 [NCGC00167526, Camostat]	high potency and efficacy
